These results are taken from patent US12509424B2, “Compound and composition as PDGF receptor kinase inhibitor” (NIPPON SHINYAKU CO., LTD., priority 2019, dated 2025).

One test addresses PDGFR-β (Homo sapiens (Human), UniProt P09619). As to the kind of experiment: PDGFR-β tyrosine kinase inhibitory action (HTRF KinEASE-TK). The settings on record: PDGFR-β enzyme 1 ng/μL, 30° C. for 30 minutes; read-out: PDGF-β IC50. Type of test: biochemical. The gist of the method:
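Recombinant PDGFR-β at 1 ng/μL final with TK substrate-3-biotin in a substrate solution containing 0.6 μM ATP; buffer 50 mM HEPES pH 7.0, 5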
For orientation: In TR-FRET formats the signal depends on donor and acceptor labels being close together.

Test [1] has as its target TEL-PDGFRβ fusion gene transfected cells (Ba/F3). Description: Suppression of proliferation of TEL-PDGFRβ fusion gene transfected Ba/F3 cells. Type of test: cell-based, human. Particulars: TEL-PDGFRβ expressing Ba/F3 cells, 72 hours, final concentration 0.1 to 10,000 nM; read-out: PDGFR β/BaF3 proliferation inhibition (IC50). An excerpt: 2. Preparation of Test Substance
4. Analysis of Measurement Results

The test system of test [2] is pulmonary arterial smooth muscle cells. As to the kind of experiment: Suppression of proliferation of pulmonary arterial smooth muscle cells (PDGF-BB stimulation, BrdU). Type of test: cell-based. The settings on record: PASMC, read-out: Human normal PASMC proliferation suppression (PDGF stimulation_IC50). The gist of the method:
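Healthy human pulmonary arterial smooth muscle cells, serum-starved a day in 0.1% FBS medium, were treated with compound at final 3 to 10,000 nM plus human PDGF-BB (final 10 ng/mL) and BrdU. After 1 day of culture, BrdU uptake was measured with an anti-BrdU antibody.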

Test [3] has as its target TEL-KIT fusion gene transfected cells (Ba/F3). As to the kind of experiment: Suppression of proliferation of TEL-KIT fusion gene transfected Ba/F3 cells.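 Note: viable cells quantified via formazan from tetrazolium reduction, inhibition scaled with 0.1% DMSO control as 0% and medium-only blank as 100%, IC50 from two-parameter logistic fit.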 The settings on record: read-out: KIT/BaF3 proliferation inhibition (IC50); TEL-KIT expressing Ba/F3 cells, 72 hours, final concentration 0.1 to 10,000 nM.
Description: Fabrication of TEL-PDGFRβ and TEL-KIT Fusion Gene Transfected Cells
Subsequently, the vectors for gene transfection were introduced using a transfection reagent (FuGENE6, Promega Corporation) into packaging cells derived from a human fetal kidney cell line, PLAT-E, in the logarithmic growth phase. Since the culture supernatant of PLAT-E after the gene transfection contained virus particles for gene transfection, it was collected and used as a medium for gene transfection. The medium for gene transfection was added to a plate coated with RetroNectin and incubated, and the virus particles were allowed to adhere to the plate. Thereafter, the mouse pro-B cell line Ba/F3 in the logarithmic growth phase was seeded onto the plate and infected with the virus to fabricate cells that proliferate in a PDGFRβ or KIT dependent manner.
The test substance was prepared with dimethyl sulfoxide (DMSO) to 10 mM and diluted with DMSO so as to reach a concentration of 0.0001 to 3 mM. Furthermore, it was diluted by 100 times with distilled water.
Measurement of Suppression Action Against Proliferation of TEL-PDGFRβ or TEL-KIT Expressing Cells
The day after TEL-PDGFRβ and TEL-KIT expressing cells were seeded onto 96 well plates, the prepared test substance solution was added thereto with a final concentration being 0.1 to 10,000 nM. After 72 hours, the viable cell count was measured using the amount of formazan generated from the reduction of a tetrazolium salt compound by the mitochondrial dehydrogenase of viable cells as an indicator.
Based on the amount of formazan in each condition, the suppression rate against cell proliferation was calculated when the amounts of formazan in the negative control (0.1% DMSO solution) and Blank (medium only) were defined as 0% and 100%, respectively. Subsequently, a nonlinear regression analysis with a two parameter logistic model for the log dose and suppression rate against cell proliferation was carried out using the SAS system (SAS Institute Inc.) to estimate the IC50 value.
[4] abbreviates: 24 h, healthy human derived pulmonary arterial smooth muscle cells, human PDGF-BB 10 ng/mL stimulation, BrdU uptake after 1 day, test substance final concentration 3 to 10,000 nM.
[5] abbreviates: human PDGF-BB 10 ng/mL, BrdU uptake, final concentration 3 to 10,000 nM.

Like-named read-outs stand apart in the source and are kept apart here.

Sequence of TEL-PDGFRβ fusion gene transfected cells (Ba/F3) (P09619 33-1106 limits assumed, change not shown): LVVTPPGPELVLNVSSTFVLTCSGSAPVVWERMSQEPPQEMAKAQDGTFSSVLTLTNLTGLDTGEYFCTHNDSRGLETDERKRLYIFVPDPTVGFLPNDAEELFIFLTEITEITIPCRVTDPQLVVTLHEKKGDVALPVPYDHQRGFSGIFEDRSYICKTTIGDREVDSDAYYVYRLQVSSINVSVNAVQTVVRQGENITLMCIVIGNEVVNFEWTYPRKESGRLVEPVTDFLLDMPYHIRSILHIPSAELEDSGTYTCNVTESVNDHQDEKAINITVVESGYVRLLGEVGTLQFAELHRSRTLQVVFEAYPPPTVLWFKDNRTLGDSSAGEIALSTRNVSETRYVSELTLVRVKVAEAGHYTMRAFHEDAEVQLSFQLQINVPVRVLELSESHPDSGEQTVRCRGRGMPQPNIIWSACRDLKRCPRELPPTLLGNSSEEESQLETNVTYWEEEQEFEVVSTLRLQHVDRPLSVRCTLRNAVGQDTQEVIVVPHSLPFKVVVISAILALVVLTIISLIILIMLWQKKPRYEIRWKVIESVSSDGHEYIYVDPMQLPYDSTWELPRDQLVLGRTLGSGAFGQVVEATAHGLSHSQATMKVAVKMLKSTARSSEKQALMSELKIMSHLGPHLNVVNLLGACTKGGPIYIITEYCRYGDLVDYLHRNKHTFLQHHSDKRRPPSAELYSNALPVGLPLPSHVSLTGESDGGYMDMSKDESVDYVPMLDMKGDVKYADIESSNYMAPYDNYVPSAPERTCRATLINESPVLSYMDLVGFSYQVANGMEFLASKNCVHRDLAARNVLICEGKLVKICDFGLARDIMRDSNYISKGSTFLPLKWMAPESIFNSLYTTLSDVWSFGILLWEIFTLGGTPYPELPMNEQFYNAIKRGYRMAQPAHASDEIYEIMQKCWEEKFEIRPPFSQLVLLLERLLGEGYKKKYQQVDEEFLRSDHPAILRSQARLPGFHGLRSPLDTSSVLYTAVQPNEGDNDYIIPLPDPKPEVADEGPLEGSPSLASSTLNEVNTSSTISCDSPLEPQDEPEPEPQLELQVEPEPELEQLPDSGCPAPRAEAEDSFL
Sequence of PDGFR-β (P09619 33-1106): as the sequence (P09619 33-1106 limits assumed, change not shown) above
Sequence of TEL-KIT fusion gene transfected cells (Ba/F3) (P10721 26-976 limits assumed, change not shown): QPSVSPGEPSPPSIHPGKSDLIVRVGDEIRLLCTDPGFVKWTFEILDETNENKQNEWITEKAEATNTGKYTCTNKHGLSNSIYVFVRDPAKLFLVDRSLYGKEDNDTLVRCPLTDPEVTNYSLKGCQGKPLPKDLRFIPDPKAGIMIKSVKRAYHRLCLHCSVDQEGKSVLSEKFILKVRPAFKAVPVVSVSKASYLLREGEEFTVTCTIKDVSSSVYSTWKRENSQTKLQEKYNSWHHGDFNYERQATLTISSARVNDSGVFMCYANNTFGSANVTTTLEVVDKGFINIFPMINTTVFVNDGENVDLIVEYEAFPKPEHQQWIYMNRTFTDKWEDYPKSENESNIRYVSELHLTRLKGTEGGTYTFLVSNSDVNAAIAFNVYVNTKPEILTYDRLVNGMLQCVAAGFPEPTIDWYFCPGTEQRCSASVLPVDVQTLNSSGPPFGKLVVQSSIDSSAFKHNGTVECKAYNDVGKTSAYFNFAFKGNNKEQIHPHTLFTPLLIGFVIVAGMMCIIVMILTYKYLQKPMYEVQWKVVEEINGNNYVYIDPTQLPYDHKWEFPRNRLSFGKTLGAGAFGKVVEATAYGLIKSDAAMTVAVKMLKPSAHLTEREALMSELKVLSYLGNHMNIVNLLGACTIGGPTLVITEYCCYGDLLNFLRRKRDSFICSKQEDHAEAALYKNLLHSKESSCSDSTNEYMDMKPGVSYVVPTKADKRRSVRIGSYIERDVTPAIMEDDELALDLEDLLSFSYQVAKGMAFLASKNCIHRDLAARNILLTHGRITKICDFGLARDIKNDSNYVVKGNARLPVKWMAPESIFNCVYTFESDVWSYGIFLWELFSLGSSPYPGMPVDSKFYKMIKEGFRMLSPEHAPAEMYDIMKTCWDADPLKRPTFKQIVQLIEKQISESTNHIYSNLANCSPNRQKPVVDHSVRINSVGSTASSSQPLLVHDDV

With `Cc1ccc(C(=O)N[C@H]2CCCC[C@@H]2O)cc1NCc1cncc(-c2ccccc2)c1` [Example 92, N-[(1S,2S)-2-hydroxycyclohexyl]-4-methyl-3-{[(5-phenylpyridin-3-yl)methyl]amino}benzamide], the IC50 at PDGFR-β amounted to 46 nM; in test [1] it was 20 nM; in test [2] (setting [4]), 66 nM; in test [3] it was 1400 nM.
In the case of `CCC[C@@H](CO)NC(=O)c1ccc(C)c(NC(=O)c2cncc(-c3ccccc3)c2)c1` [Example 14, N-(5-{[(2S)-1-hydroxypentan-2-yl]carbamoyl}-2-methylphenyl)-5-phenylpyridine-3-carboxamide], the IC50 on PDGFR-β is 40 nM; in test [1], 11 nM; in test [2] (setting [5]) it was 48 nM; in test [3] it was 330 nM.
For the compound `Cc1ccc(C(=O)N[C@H]2CCCC[C@@H]2O)cc1NCc1cncc(-c2cnccn2)c1` [Example 115, N-[(1S,2S)-2-hydroxycyclohexyl]-4-methyl-3-({[5-(pyrazin-2-yl)pyridin-3-yl]methyl}amino)benzamide], the IC50 was determined as 260 nM at PDGFR-β, 1.4 nM in test [1], 290 nM in test [2] (setting [4]) and 1700 nM in test [3].
As for `Cc1ccc(C(=O)N[C@H]2CCCC[C@@H]2O)cc1NC(=O)c1cncc(-c2ccccc2C)c1` [Example 12, N-(5-{[(1S,2S)-2-hydroxycyclohexyl]carbamoyl}-2-methylphenyl)-5-(2-methylphenyl)pyridine-3-carboxamide], the IC50 came to 170 nM on PDGFR-β, 35 nM in test [1], 65 nM in test [2] (setting [5]) and 800 nM in test [3].
In the case of `O=C(Nc1ccc(F)c(CNc2cncc(-c3ncccn3)c2)c1)N[C@@H]1CCCC[C@@H]1O` [Example 161, N-[4-fluoro-3-({[5-(pyrimidin-2-yl)pyridin-3-yl]amino}methyl)phenyl]-N′-[(1R,2S)-2-hydroxycyclohexyl]urea], the IC50 at PDGFR-β is 16 nM; in test [1] it was 4.8 nM; in test [2] (setting [4]) it was 110 nM; in test [3] it was more than 10000 nM.
For `Cc1ccc(C(=O)N[C@H]2CCCC[C@@H]2O)cc1C#Cc1cncc(Br)c1` [Example 61, 3-[(5-bromopyridin-3-yl)ethynyl]-N-[(1S,2S)-2-hydroxycyclohexyl]-4-methylbenzamide], in that order: 41 nM, 18 nM, 18 nM and 840 nM.
Turning to `Cc1ccc(C(=O)N[C@H]2CCCC[C@@H]2O)cc1NC(=O)c1cnc(NCC(C)(C)C)s1` [Example 41, 2-[(2,2-dimethylpropyl)amino]-N-(5-{[(1S,2S)-2-hydroxycyclohexyl]carbamoyl}-2-methylphenyl)-1,3-thiazole-5-carboxamide], the IC50 is 130 nM on PDGFR-β, 35 nM in test [1], 210 nM in test [2] (setting [4]) and 2100 nM in test [3].
On to `Cc1ccc(C(=O)N[C@H]2CCCC[C@@H]2O)cc1C#Cc1cncc(-c2cnccn2)c1` [Example 63, N-[(1S,2S)-2-hydroxycyclohexyl]-4-methyl-3-{[5-(pyrazin-2-yl)pyridin-3-yl]ethynyl}benzamide], for which the IC50 at PDGFR-β stood at 15 nM; in test [1], 0.8 nM; in test [2] (setting [4]) it was 10 nM; in test [3] it was 240 nM.
Consider `Cc1ccc(C(=O)N[C@H]2CCCC[C@@H]2O)cc1NC(=O)c1cnc(NCCC2CC2)s1` [Example 26, 2-[(2-cyclopropylethyl)amino]-N-(5-{[(1S,2S)-2-hydroxycyclohexyl]carbamoyl}-2-methylphenyl)-1,3-thiazole-5-carboxamide], for which the IC50 at PDGFR-β amounted to 4.6 nM; in test [1], 9.3 nM; in test [2] (setting [5]), 25 nM; in test [3], 460 nM.
For `O=C(N[C@H]1CCCC[C@@H]1O)c1ccc(Cl)c(NCc2cncc(-c3ncccn3)c2)c1` [Example 104, 4-chloro-N-[(1S,2S)-2-hydroxycyclohexyl]-3-({[5-(pyrimidin-2-yl)pyridin-3-yl]methyl}amino)benzamide], the IC50 at PDGFR-β worked out at 260 nM; in test [1], 3.4 nM; in test [2] (setting [4]), 38 nM; in test [3], 3400 nM.
As for `O=C(N[C@H]1CCCC[C@@H]1O)c1ccc(Cl)c(C#Cc2cncc(-c3ncccn3)c2)c1` [Example 64, 4-chloro-N-[(1S,2S)-2-hydroxycyclohexyl]-3-{[5-(pyrimidin-2-yl)pyridin-3-yl]ethynyl}benzamide], the IC50 on PDGFR-β came out at 260 nM; in test [1], 5.9 nM; in test [2] (setting [4]), 92 nM; in test [3], 230 nM.
For `Cc1ccc(C(=O)N[C@H]2CCCC[C@@H]2O)cc1OCc1cncc(-c2cccnc2)c1` [Example 165, 3-[([3,3′-bipyridin]-5-yl)methoxy]-N-[(1S,2S)-2-hydroxycyclohexyl]-4-methylbenzamide], in that order: 390 nM, 9 nM, 46 nM and 2900 nM.
`Cc1ccc(C(=O)N[C@H]2CCCC[C@@H]2O)cc1NC(=O)c1cncc(-c2ccc(F)cc2)c1` [Example 19, 5-(4-fluorophenyl)-N-(5-{[(1S,2S)-2-hydroxycyclohexyl]carbamoyl}-2-methylphenyl)pyridine-3-carboxamide]: the IC50 at PDGFR-β was found to be 13 nM; in test [1] it was 30 nM; in test [2] (setting [5]) it was 81 nM; in test [3] it was 1000 nM.
Turning to `COc1ccc(-c2cncc(C(=O)Nc3cc(C(=O)N[C@H]4CCCC[C@@H]4O)ccc3C)c2)c(F)c1` [Example 33, 5-(2-fluoro-4-methoxyphenyl)-N-(5-{[(1S,2S)-2-hydroxycyclohexyl]carbamoyl}-2-methylphenyl)pyridine-3-carboxamide], the IC50 at PDGFR-β was 19 nM; in test [1], 80 nM; in test [2] (setting [4]), 67 nM; in test [3] it was 880 nM.
In the same order, the values of `Cc1ccc(C(=O)N[C@H]2CCCC[C@@H]2O)cc1C#Cc1cncc(-c2ccc(F)cc2)n1` [Example 71, 3-{[6-(4-fluorophenyl)pyrazin-2-yl]ethynyl}-N-[(1S,2S)-2-hydroxycyclohexyl]-4-methylbenzamide] are 42 nM, 6 nM, 43 nM and 570 nM.
Consider `Cc1ccc(C(=O)N[C@H]2CCCC[C@@H]2O)cc1NC(=O)c1cncc(OCC2CC2)c1` [Example 24, 5-(cyclopropylmethoxy)-N-(5-{[(1S,2S)-2-hydroxycyclohexyl]carbamoyl}-2-methylphenyl)pyridine-3-carboxamide], for which the IC50 at PDGFR-β came out at 64 nM; in test [1] it was 11 nM; in test [2] (setting [5]), 110 nM; in test [3] it was 1200 nM.
For `Cc1ccc(C(=O)N[C@H]2CCCC[C@@H]2O)cc1NCc1cncc(-c2cccs2)c1` [Example 102, N-[(1S,2S)-2-hydroxycyclohexyl]-4-methyl-3-({[5-(thiophen-2-yl)pyridin-3-yl]methyl}amino)benzamide], the IC50 turned out to be 23 nM at PDGFR-β, 2 nM in test [1], 30 nM in test [2] (setting [4]) and 620 nM in test [3].
With `Cc1ccc(C(=O)N[C@H]2CCCC[C@@H]2O)cc1NCc1cncc(-c2ccccc2)n1` [Example 101, N-[(1S,2S)-2-hydroxycyclohexyl]-4-methyl-3-{[(6-phenylpyrazin-2-yl)methyl]amino}benzamide], the IC50 at PDGFR-β came to 170 nM; in test [1], 56 nM; in test [2] (setting [4]) it was 71 nM; in test [3], 9000 nM.
On to `Cc1ccc(C(=O)N[C@@H](CO)[C@@H](O)c2ccccc2)cc1CNc1cncc(-c2ccccn2)c1` [Example 155, 3-{[([2,3′-bipyridin]-5′-yl)amino]methyl}-N-[(1S,2S)-1,3-dihydroxy-1-phenylpropan-2-yl]-4-methylbenzamide], for which the IC50 was found to be 36 nM on PDGFR-β, 69 nM in test [1], 160 nM in test [2] (setting [4]) and 10000 nM in test [3].
`Cc1ccc(C(=O)N[C@H]2CCCC[C@@H]2O)cc1NC(=O)c1cnc(NC2(C)CC2)s1` [Example 39, N-(5-{[(1S,2S)-2-hydroxycyclohexyl]carbamoyl}-2-methylphenyl)-2-[(1-methylcyclopropyl)amino]-1,3-thiazole-5-carboxamide]: the IC50 on PDGFR-β turned out to be 100 nM; in test [1] it was 13 nM; in test [2] (setting [4]), 150 nM; in test [3], 1000 nM.
For `Cc1ccc(C(=O)N[C@H]2CCCC[C@@H]2O)cc1NC(=O)c1cncc(OC2CC(F)(F)C2)c1` [Example 47, 5-[(3,3-difluorocyclobutyl)oxy]-N-(5-{[(1S,2S)-2-hydroxycyclohexyl]carbamoyl}-2-methylphenyl)pyridine-3-carboxamide], the IC50 on PDGFR-β stood at 390 nM; in test [1], 75 nM; in test [2] (setting [4]) it was 350 nM; in test [3], 7000 nM.
